{"source": "patent US10130641B2", "about": "“Compositions of vitamin D and methods for their use and manufacture” (priority 2015, dated 2018)", "assay": "Plasma concentration of vitamin D3 in rats after a single oral dose (absorption / bioavailability study)", "format": "in vivo, Wistar rats", "conditions": "for Cmax / Tmax / AUC: Area Under the plasma conc.-time Curve: rat plasma, 50,000 IU oral; for AUC: Area Under the plasma conc.-time Curve: trapezoid rule; for Mean plasma concentration of vitamin D3: rat, 50,000 IU oral", "protocol": "The present study was undertaken to compare the rate of absorption of vitamin D3, from formulated vitamin D3 with tomato seed oil and high-fat meal. The absorption was studied by serial measurements of the plasma concentration of vitamin D3 after ingestion of a pharmacological dose of the vitamin dissolved in the vehicles.\nMale Albino Wistar rats were used. Animals were kept under a twelve-hour light/dark cycle. Group I was treated with normal diet and vitamin D3 (50,000 IU). Group II was given Vitamin D3 (50,000 IU) with High-Fat diet. Group III was treated with Vitamin D3 (50,000 IU) formulation in tomato seed oil orally. 10 mL/kg body weight was used for gavage administration. […] Animals were ether anesthetized and blood samples (approximately 0.5 mL) were collected via retro-orbital sinus puncture.\nBlood samples were collected in heparinized eppendorf tubes. Tubes were inverted several times to mix and were then placed on ice and centrifuged to separate plasma within 1 h time. After centrifugation, plasma was transferred into storage tubes (0.5 mL), which were stored frozen (approximately −70° C.) until analyzed.\nPlasma processing involved liquid-liquid extraction using acetonitrile and methanol (80:20). 100 μL aliquot of plasma was mixed with 1 mL of acetonitrile and methanol. After vortex mixing for 1 min, the sample was centrifuged at 7,000 rpm at 4° C. for 10 min to remove precipitated proteins; the supernatant was transferred to a clean tube and dried under nitrogen at room temperature (approximately 25° C.). After the evaporation was completed, the residue was reconstituted in 100 μL of methanol with 5 min of sonication, added to 400 μL of water, vortex mixed, and centrifuged again. The resulting supernatant was transferred to a sample vial for instrumental analysis.\nChromatography was performed using a Phenomenex C18 […]×4.6 mm, 5 μm column, maintained at a temperature of 35° C. A flow rate of 1 mL/min was used; mobile phase acetonitrile and methanol (80:20); elution gradient program, injection volume 5 μL, detection UV, 280 nm. Total run time was 15 min.\nThe data was represented in a plasma level-time curve. The area under time curve (AUC) was calculated using Trapezoid rule. The maximum concentration (Cmax) and maximum time (Tmax) were obtained directly from generated data. The maximum plasma concentration (Cmax) and the time to reach Cmax (Tmax) were obtained directly from the plasma concentration-time curve. All values were expressed as mean±standard deviation (SD) except Tmax mentioned as median.", "data": [{"smiles": "C=C1CC[C@H](O)C/C1=C/C=C1\\CCC[C@]2(C)[C@@H]([C@H](C)CCCC(C)C)CC[C@@H]12", "note": "[Vitamin D3 + Normal Diet, cholecalciferol]", "values": [{"measurement": "Cmax", "setting": "normal diet", "value": "47030 ± 4150", "unit": "ng/mL"}, {"measurement": "Tmax", "setting": "normal diet", "value": 24, "unit": "h"}, {"measurement": "AUC: Area Under the plasma conc.-time Curve", "setting": "normal diet", "value": "3478 + 1758 μg · hr/ml"}, {"measurement": "Mean plasma concentration of vitamin D3", "setting": "normal diet, 0 min", "value": 0, "unit": "ng/mL"}, {"measurement": "Mean plasma concentration of vitamin D3", "setting": "normal diet, 30 min", "value": 0, "unit": "ng/mL"}, {"measurement": "Mean plasma concentration of vitamin D3", "setting": "normal diet, 1 hrs", "value": "1867 ± 800", "unit": "ng/mL"}, {"measurement": "Mean plasma concentration of vitamin D3", "setting": "normal diet, 2 hrs", "value": "4310 ± 1530", "unit": "ng/mL"}, {"measurement": "Mean plasma concentration of vitamin D3", "setting": "normal diet, 3 hrs", "value": "9870 ± 4140", "unit": "ng/mL"}, {"measurement": "Mean plasma concentration of vitamin D3", "setting": "normal diet, 4 hrs", "value": "12000 ± 4970", "unit": "ng/mL"}, {"measurement": "Mean plasma concentration of vitamin D3", "setting": "normal diet, 6 hrs", "value": "10740 ± 8060", "unit": "ng/mL"}, {"measurement": "Mean plasma concentration of vitamin D3", "setting": "normal diet, 8 hrs", "value": "13590 ± 4160", "unit": "ng/mL"}, {"measurement": "Mean plasma concentration of vitamin D3", "setting": "normal diet, 12 hrs", "value": "16060 ± 3500", "unit": "ng/mL"}, {"measurement": "Mean plasma concentration of vitamin D3", "setting": "normal diet, 24 hrs", "value": "47030 ± 4150", "unit": "ng/mL"}, {"measurement": "Mean plasma concentration of vitamin D3", "setting": "normal diet, 48 hrs", "value": "17940 ± 1330", "unit": "ng/mL"}, {"measurement": "Mean plasma concentration of vitamin D3", "setting": "normal diet, 72 hrs", "value": "1070 ± 350", "unit": "ng/mL"}]}, {"smiles": "C=C1CC[C@H](O)C/C1=C/C=C1\\CCC[C@]2(C)[C@@H]([C@H](C)CCCC(C)C)CC[C@@H]12", "note": "[Vitamin D3 + High-Fat Diet, cholecalciferol]", "values": [{"measurement": "Cmax", "setting": "high-fat diet", "value": "86090 ± 12140", "unit": "ng/mL"}, {"measurement": "Tmax", "setting": "high-fat diet", "value": 12, "unit": "h"}, {"measurement": "AUC: Area Under the plasma conc.-time Curve", "setting": "high-fat diet", "value": "1595 + 600.6 μg · hr/ml"}, {"measurement": "Mean plasma concentration of vitamin D3", "setting": "high-fat diet, 0 min", "value": 0, "unit": "ng/mL"}, {"measurement": "Mean plasma concentration of vitamin D3", "setting": "high-fat diet, 30 min", "value": 0, "unit": "ng/mL"}]}]}
